Test results reported in patent publication US20060128640A1 (priority 2001, published 2006).
Read-outs that look alike come from different tables or passages of the source.

What was measured:
[1] = tested on: murine mammary adenocarcinoma MA13/C; settings: for highest non-toxic total dose, component alone: single agent IV, Taxotere d14, 23, flavopiridol d14-17, 20-23
[2] = tested on: mammary adenocarcinoma MA 13/C; settings: for % bwl (nadir): mouse, in vivo, iv; for HNTD (DT), total dose / HNTD (highest non-toxic dose), per dose: single agent IV, days 15, 21
Procedure: A product is considered to be active if log10 cell kill is greater than or equal to 0.7. A product is considered to be very active if log10 cell kill is greater than 2.8.
The animals subjected to the experiment, generally mice, are subcutaneously grafted bilaterally with 30 to 60 mg of a tumor fragment on day zero. The animals bearing tumors are mixed before being subjected to the various treatments and controls. In the case of treatment of advanced tumors, tumors are allowed to develop to the desired size, animals having insufficiently developed tumors being eliminated. The selected animals are distributed at random to undergo the treatments and controls. […] Chemotherapy generally begins from 3 to 22 days after grafting, depending on the type of tumor. The animals are observed every day. The different animal groups are weighed 3 or 4 times a week until the maximum weight loss is attained, and the groups are then weighed at least once a week until the end of the trial.
The tumors are measured 2 or 3 times a week until the tumor reaches approximately 2 g, or until the animal dies, if this occurs before the tumor reaches 2 g. The animals are autopsied after death.

[3] = Flavo alone IV at HNTD 2.9 mg/kg/dose (total 23.2 mg/kg)
[4] = Flavopiridol alone IV 1.75 mg/kg/dose d14-17, 20-23 (total 14)
[5] = Flavopiridol alone IV 2.9 mg/kg/dose d14-17, 20-23 (total 23.2)
[6] = Flavopiridol alone IV 4.8 mg/kg/dose d14-17, 20-23 (total 38.4)
[7] = Taxotere alone IV 48.1 mg/kg/dose d14, 23 (total 96.8)

## CN1CC[C@H](c2c(O)cc(O)c3c(=O)cc(-c4ccccc4Cl)oc23)[C@H](O)C1 [Flavopiridol, cis-5,7-dihydroxy-2-(2-chlorophenyl)-8-[4-(3-hydroxy-1-methyl)-piperidinyl]-1-benzopyran-4-one]
MA13/C; Flavopiridol alone po 2.7 mg/kg days 14-18, 21-25 (total 27)
  lck (log10 cell kill): 0.1
MA13/C; mouse, in vivo, po, 2.7 mg/kg
  % bwl (nadir): 11.6%
[1]; [3]
  activity rating: inactive
  log cell kill net: −0.4
[1]; Flavo alone IV once a day, day 14 to 17 and 20-23
  highest non-toxic dose (HNTD), per dose: 2.9 mg/kg/dose
[1]; [4]
  CR (complete response): 0/6
  lck Gross: 0.0
[1]; Flavopiridol alone IV 1.75 mg/kg/dose d14-17, 20-23 (total 14), day 24
  % bwl (nadir): +10 (24) %
[1]; [5]
  Comments (toxicity level of the dose): HNTD
  lck Gross: 1.0
[1]; Flavopiridol alone IV 2.9 mg/kg/dose d14-17, 20-23 (total 23.2), 2.9 mg/kg
  CR (complete response): 0/6
[1]; Flavopiridol alone IV 2.9 mg/kg/dose d14-17, 20-23 (total 23.2), listed as Flavo, 2.9 mg/kg
  CR (complete response): no complete regression
[1]; Flavopiridol alone IV 2.9 mg/kg/dose d14-17, 20-23 (total 23.2), nadir day 18
  % bwl (nadir): 3 (18) %
[1]; [6]
  % bwl (nadir): >20%
  Comments: DD: 4/5 DD
[1]
  highest non-toxic total dose, component alone: 23.2 mg/kg
[2]; Flavopiridol alone IV 6.0 mg/kg days 15, 21 (total 12.0)
  lck (log10 cell kill): 0.4
[2]; Flavopiridol alone IV 6.0 mg/kg days 15, 21 (total 12.0), 6 mg/kg
  CR (complete response): 0/5 CR
[2]; Flavopiridol alone IV 6.0 mg/kg days 15, 21 (total 12.0), listed as flavopiridol, 6 mg/kg
  CR (complete response): no compete responses in the 5 mice tested
[2]; 6 mg/kg
  % bwl (nadir): 6 (16) %
[2]
  HNTD (DT), total dose: (12.0) mg/kg
  HNTD (highest non-toxic dose), per dose: 6.0 mg/kg

## CC(=O)O[C@@]12CO[C@@H]1C[C@H](O)[C@@]1(C)C(=O)[C@H](O)C3=C(C)[C@@H](OC(=O)[C@H](O)[C@@H](NC(=O)OC(C)(C)C)c4ccccc4)C[C@@](O)([C@@H](OC(=O)c4ccccc4)[C@H]21)C3(C)C [Taxotere ®, docetaxel]
MA13/C; Taxotere alone IV 30 mg/kg days 14, 25 (total 60)
  lck (log10 cell kill): 0.9
MA13/C; mouse, in vivo
  HNTD (DT), total dose: (60) mg/kg
  HNTD, per dose: 30 mg/kg
MA13/C; mouse, in vivo, iv, 30 mg/kg
  % bwl (nadir): 3.6%
  Comments (toxicity level of the dose): HNTD
[1]; [7]
  CR (complete response): 6/6
  Comments (toxicity level of the dose): HNTD
  lck Gross: 4.4
[1]; Taxotere alone IV 48.1 mg/kg/dose d14, 23 (total 96.8), nadir day 28
  % bwl (nadir): 8 (28) %
[1]; Taxotere alone IV 78.1 mg/kg/dose d14, 23 (total 156.2)
  Comments: DD: 2/6 DD
[1]; Taxotere alone IV 78.1 mg/kg/dose d14, 23 (total 156.2), nadir day 29
  % bwl (nadir): 20 (29) %
[1]; docetaxel alone at HNTD 48.1 mg/kg/injection (total 96.8 mg/kg)
  log cell kill net: 3
[1]; docetaxel alone, days 14 and 23
  HNTD, per injection: 48.1 mg/kg/injection
[1]
  highest non-toxic total dose, component alone: 96.8 mg/kg
[2]; Taxotere alone IV 30.0 mg/kg days 15, 21 (total 60.0)
  lck (log10 cell kill): 4.7
[2]; Taxotere alone IV 30.0 mg/kg days 15, 21 (total 60.0), 30 mg/kg
  CR (complete response): 5/5 CR
[2]; Taxotere alone IV 30.0 mg/kg days 15, 21 (total 60.0), listed as Taxotere®, 30 mg/kg
  CR (complete response): complete response in all 5 of the mice
[2]; 30 mg/kg
  % bwl (nadir): 8 (27) %
[2]
  HNTD (DT), total dose: (60.0) mg/kg
  HNTD (highest non-toxic dose), per dose: 30.0 mg/kg
